What was measured:
[1] = target: T1, AvrE (Pseudomonas syringae group genomosp. 3, UniProt Q887C9); experiment: oocyte fluorescent dye uptake; type: cell-based; conditions: 5 µg/ml fluorescein in ND96 saline; 20 ng avrE cRNA; permeation through channel
T1 construct: full-length untagged ORF in pGH19, cRNA-injected Xenopus laevis oocytes

[2] = target: T2, DspE (Erwinia amylovora, UniProt O54581); type: cell-based; conditions: current at 50 mV test pulse; ND96 saline, pH 7.5; channel block
T2 construct: full-length untagged ORF in pGH19, cRNA-injected Xenopus laevis oocytes; strain of oocyte clone not restated

[3] = target: T3, DspE (MBP–DspE) (Erwinia amylovora, UniProt O54581); experiment: liposome carboxyfluorescein release; type: biochemical; conditions: soybean liposomes; 0.05–0.15 µM DspE; 20 mM HEPES, 300 mM NaCl, pH 8.0; channel block
T3 construct: full-length DspE fused to MBP-His8-PPX-Flag; made in E. coli BL21(DE3)

[4] = target: T1, AvrE; experiment: two-electrode voltage clamp, Xenopus oocytes; type: cell-based; conditions: current at 50 mV test pulse; ND96 saline, pH 7.5; channel block

T2 sequence (O54581 whole entry): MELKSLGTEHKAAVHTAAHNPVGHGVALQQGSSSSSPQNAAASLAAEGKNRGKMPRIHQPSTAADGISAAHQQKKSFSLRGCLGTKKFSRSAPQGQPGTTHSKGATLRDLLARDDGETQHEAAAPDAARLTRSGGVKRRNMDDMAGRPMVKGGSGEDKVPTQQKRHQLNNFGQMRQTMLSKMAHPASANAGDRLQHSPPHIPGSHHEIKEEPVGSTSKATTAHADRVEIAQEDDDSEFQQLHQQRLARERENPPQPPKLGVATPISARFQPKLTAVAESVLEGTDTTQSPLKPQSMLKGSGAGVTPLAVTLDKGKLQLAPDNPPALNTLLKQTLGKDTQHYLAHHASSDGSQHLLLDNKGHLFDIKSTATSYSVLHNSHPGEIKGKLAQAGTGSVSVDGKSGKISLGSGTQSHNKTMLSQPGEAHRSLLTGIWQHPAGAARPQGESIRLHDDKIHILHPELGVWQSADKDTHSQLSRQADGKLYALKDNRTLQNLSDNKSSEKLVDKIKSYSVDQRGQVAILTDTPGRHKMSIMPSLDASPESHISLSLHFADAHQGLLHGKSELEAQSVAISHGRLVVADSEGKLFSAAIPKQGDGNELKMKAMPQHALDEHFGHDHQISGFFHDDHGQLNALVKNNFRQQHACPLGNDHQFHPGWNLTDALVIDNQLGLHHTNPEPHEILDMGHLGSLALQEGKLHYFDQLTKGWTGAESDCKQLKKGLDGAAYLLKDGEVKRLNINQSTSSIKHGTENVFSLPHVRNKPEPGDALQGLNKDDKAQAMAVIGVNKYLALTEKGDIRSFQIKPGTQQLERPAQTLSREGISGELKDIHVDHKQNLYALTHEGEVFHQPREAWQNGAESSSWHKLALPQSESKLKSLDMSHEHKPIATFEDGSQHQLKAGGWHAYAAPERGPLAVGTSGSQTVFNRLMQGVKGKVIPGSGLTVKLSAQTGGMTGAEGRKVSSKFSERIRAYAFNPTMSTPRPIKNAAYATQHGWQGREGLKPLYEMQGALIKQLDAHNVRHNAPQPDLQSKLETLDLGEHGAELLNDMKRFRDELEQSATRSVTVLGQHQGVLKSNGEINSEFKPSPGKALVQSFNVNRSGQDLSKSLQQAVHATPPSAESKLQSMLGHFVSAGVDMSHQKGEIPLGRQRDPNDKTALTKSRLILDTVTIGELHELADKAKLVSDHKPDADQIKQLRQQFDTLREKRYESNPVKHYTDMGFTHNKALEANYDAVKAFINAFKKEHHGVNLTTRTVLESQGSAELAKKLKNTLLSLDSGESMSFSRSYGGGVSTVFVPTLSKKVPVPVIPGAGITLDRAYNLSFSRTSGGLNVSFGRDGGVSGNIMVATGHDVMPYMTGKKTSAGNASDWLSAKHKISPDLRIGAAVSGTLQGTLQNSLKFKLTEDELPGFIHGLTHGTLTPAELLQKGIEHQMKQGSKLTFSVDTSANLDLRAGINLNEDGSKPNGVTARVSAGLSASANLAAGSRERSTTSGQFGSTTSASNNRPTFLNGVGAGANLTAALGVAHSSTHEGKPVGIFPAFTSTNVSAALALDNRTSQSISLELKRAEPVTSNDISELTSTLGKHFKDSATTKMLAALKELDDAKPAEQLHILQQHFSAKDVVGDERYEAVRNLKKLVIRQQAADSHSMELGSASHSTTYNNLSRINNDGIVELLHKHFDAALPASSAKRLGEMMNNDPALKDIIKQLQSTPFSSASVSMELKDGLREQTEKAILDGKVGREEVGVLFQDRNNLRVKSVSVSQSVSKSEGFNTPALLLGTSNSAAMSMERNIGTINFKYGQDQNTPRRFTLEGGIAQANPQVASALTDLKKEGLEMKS
T1 sequence (Q887C9 whole entry): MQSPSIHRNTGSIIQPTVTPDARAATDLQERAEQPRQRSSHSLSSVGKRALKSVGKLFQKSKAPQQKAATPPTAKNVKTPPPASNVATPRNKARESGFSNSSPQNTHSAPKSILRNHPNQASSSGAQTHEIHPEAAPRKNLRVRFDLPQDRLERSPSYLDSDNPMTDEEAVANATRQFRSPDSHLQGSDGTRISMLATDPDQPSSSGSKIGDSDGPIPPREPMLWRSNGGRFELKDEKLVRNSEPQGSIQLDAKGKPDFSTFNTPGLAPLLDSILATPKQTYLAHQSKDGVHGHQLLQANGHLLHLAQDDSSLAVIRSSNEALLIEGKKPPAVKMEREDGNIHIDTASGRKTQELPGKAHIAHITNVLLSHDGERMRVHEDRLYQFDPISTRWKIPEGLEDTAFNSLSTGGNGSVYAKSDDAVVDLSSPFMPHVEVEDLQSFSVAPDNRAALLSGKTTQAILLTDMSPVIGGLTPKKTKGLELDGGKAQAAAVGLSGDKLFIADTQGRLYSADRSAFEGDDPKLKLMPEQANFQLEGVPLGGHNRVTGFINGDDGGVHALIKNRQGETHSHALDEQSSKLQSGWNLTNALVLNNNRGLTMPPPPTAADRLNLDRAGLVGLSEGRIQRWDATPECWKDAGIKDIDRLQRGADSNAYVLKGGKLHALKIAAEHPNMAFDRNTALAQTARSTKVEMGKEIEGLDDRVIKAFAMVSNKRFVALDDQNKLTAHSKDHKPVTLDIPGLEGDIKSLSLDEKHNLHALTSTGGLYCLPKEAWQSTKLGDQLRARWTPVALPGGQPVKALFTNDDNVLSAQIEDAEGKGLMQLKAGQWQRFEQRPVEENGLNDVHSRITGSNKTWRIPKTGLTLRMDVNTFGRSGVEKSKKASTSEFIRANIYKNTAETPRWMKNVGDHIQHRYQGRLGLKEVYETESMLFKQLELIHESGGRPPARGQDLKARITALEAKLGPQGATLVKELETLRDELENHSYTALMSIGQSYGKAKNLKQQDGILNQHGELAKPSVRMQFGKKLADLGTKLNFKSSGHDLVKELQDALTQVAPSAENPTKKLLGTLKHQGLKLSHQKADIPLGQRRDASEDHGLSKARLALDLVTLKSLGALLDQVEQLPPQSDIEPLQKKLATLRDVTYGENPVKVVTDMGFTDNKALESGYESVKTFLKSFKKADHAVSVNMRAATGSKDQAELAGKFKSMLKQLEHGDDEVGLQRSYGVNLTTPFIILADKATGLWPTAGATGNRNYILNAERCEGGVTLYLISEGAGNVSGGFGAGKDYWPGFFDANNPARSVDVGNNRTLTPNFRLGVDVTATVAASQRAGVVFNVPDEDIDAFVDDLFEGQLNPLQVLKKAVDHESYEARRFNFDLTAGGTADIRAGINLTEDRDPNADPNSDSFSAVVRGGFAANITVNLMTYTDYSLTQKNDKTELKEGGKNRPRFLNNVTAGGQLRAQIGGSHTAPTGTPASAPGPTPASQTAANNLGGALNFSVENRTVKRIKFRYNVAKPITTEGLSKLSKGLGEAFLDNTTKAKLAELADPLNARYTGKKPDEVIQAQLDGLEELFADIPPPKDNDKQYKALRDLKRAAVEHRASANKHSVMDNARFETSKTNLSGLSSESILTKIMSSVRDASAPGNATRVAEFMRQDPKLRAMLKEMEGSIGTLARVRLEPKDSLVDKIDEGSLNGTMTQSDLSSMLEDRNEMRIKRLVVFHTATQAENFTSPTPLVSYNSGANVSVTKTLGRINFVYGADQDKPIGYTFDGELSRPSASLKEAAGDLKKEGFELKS

Row | Compound | oocyte fluorescent dye uptake [1] | % inhibition at 10 mM [2] | IC50 [3] | % inhibition at 10 mM [4]
1 | O=C1OC2(c3ccc(O)cc3Oc3cc(O)ccc32)c2ccccc21 [fluorescein] | fluorescein entered oocytes expressing DspE or AvrE, whereas eGFP could not | – | – | –
2 | PAMAM G0 | – | 68% | – | –
3 | PAMAM G1 | – | 71% | 31 µM | 93%
